Results from PubChem BioAssay AID2060500 (Molecular Pharmacology Branch, DTP, NCI, 2025).

System: 596521-263-R-J1-PDC complex spheroids, viability % of control
Assay: Anticancer human tumor 596521-263-R-J1-PDC patient-derived soft tissue sarcoma cell line growth inhibition [GQUAD]
Conditions: for IC50: curve of first compound; for viability, T/C: stronger effect = lower value
From the text: DNA G-quadruplex Stabilizer Agents in Combinations in Complex Spheroids
A high-throughput screen of multi-cell type tumor spheroids was designed to identify active combinations of DNA G-quadruplex stabilizer agents and targeted small molecules. Complex spheroids include a stromal component modeled by human endothelial cells (HUVEC) and fibroblasts modeled by human mesenchymal stem cells (MSCs). The concentration ranges selected for each drug and investigational agent were based upon clinically achievable concentrations if the clinical Cmax of the agent was known.
Compounds. The drugs and investigational agents: pidnarulex (CX-5461; NSC782164), APTO-253 (NSC789042), BRACO-19 (NSC847499), peposertib (NSC802822), ceralasertib (NSC780249), elimusertib (NSC800525), camonsertib (NSC841442), AZD-1390 (NSC803789), olaparib (NSC753686), talazoparib (NSC767125), ART-558 (NSC835418), sotorasib (NSC818433), MRTX-1133 (NSC836407), SN-38 (NSC673596), topotecan (NSC609699), etoposide (NSC141540), doxorubicin (NSC123127), gemcitabine (NSC613327), 5-fluorouracil (NSC19893), paclitaxel (NSC125973), vemurafenib (NSC761431), panobinostat (NSC761190), R-306465 (JNJ-16241199; NSC773264), adavosertib (NSC754352), TP-3654 (NSC805149), carboplatin (NSC241240), KSQ-4279 (NSC840948), and staurosporine (NSC755774) were obtained from the National Cancer Institute (NCI) Developmental Therapeutics Program Chemical Repository (34). The FDA-approved anticancer drug set is available from the NCI Developmental Therapeutics Program. […] The stock solutions were prepared in dimethyl sulfoxide (DMSO, Sigma-Aldrich, St. Louis, MO, cat. D2650) at 800-fold the tested concentration and stored at -70 degrees C prior to their use. All drugs and investigational agents were tested over a range starting from a high concentration at or near the clinical Cmax and decreasing in half-log increments. If the clinical Cmax for an agent had not been determined, the highest concentration tested was 10 microM.
2.3 Cell Culture. All cells were maintained in an incubator at 37 degrees C and 5% CO2 with 95% humidity. The PDC lines were cultured according to standard operating procedures established by the NCI PDMR. All PDCs were thawed and cultured in Matrigel-coated flasks prepared with a working solution of 1X Ham's F-12 nutrient mix, without supplementation (Invitrogen, cat. 11765054), 100 U/mL penicillin-streptomycin (Invitrogen, cat. 15140122), and 2.5% Matrigel (Corning Inc., cat. 354248) for the first three passages. The 857933-349-R-J2-PDC line was cultured in 6C/Colon 1B media, which includes advanced DMEM/F-12 (Thermo Fisher Scientific, cat. 12634028), 10 mM HEPES (Thermo Fisher Scientific, cat. 15630080), 1X GlutaMAX supplement (Thermo Fisher Scientific, cat. 35050061), 0.1 mg/mL primocin (InvivoGen, cat. ant-pm-2), 10% defined fetal bovine serum, heat inactivated (HyClone Laboratories Inc., cat. SH30070.03HI), 50% L-WRN conditioned media (ATCC, cat. CRL-3276), 1.25 mM N-Acetyl-L-cysteine (Sigma-Aldrich, cat. A9165), 10 mM nicotinamide (Sigma-Aldrich, cat. N0636), 1X B-27 supplement (Thermo Fisher Scientific, cat. 17504044), 1X N-2 supplement (Thermo Fisher Scientific, cat. 17502048), 10 microM Y-27632 dihydrochloride (Tocris Bioscience, cat. 1254), and 50 ng/mL human EGF recombinant protein (Thermo Fisher Scientific, cat. PHG0311). The 485176-168-R4-J1-PDC line was cultured in Panc media, which includes all 6C/Colon 1B media components plus 100 ng/mL human FGF-10 (Thermo Fisher Scientific, cat. 100-26), 500 nM SB-431542 (Selleckchem, cat. S1067), and gastrin (Tocris, cat. 3006).
[…]

[1] = second compound 0.0316 µM, first compound 0.0316 µM
[2] = second compound 0.0316 µM, first compound 0.1 µM
[3] = second compound 0.0316 µM, first compound 0.316 µM
[4] = second compound 0.0316 µM, first compound 1 µM
[5] = second compound 0.0316 µM, first compound 3.16 µM
[6] = second compound 0.0316 µM, first compound 10 µM
[7] = second compound 0.1 µM, first compound 0.0316 µM
[8] = second compound 0.1 µM, first compound 0.1 µM
[9] = second compound 0.1 µM, first compound 0.316 µM
[10] = second compound 0.1 µM, first compound 1 µM
[11] = second compound 0.1 µM, first compound 3.16 µM
[12] = second compound 0.1 µM, first compound 10 µM
[13] = second compound 0.316 µM, first compound 0.0316 µM
[14] = second compound 0.316 µM, first compound 0.1 µM
[15] = second compound 0.316 µM, first compound 0.316 µM
[16] = second compound 0.316 µM, first compound 1 µM
[17] = second compound 0.316 µM, first compound 3.16 µM
[18] = second compound 0.316 µM, first compound 10 µM
[19] = second compound 1 µM, first compound 0.0316 µM
[20] = second compound 1 µM, first compound 0.1 µM
[21] = second compound 1 µM, first compound 0.316 µM
[22] = second compound 1 µM, first compound 1 µM
[23] = second compound 1 µM, first compound 3.16 µM
[24] = second compound 1 µM, first compound 10 µM
[25] = second compound 3.16 µM, first compound 0.0316 µM
[26] = second compound 3.16 µM, first compound 0.1 µM
[27] = second compound 3.16 µM, first compound 0.316 µM
[28] = second compound 3.16 µM, first compound 1 µM
[29] = second compound 3.16 µM, first compound 3.16 µM
[30] = second compound 3.16 µM, first compound 10 µM
[31] = second compound 10 µM, first compound 0.0316 µM
[32] = second compound 10 µM, first compound 0.1 µM
[33] = second compound 10 µM, first compound 0.316 µM
[34] = second compound 10 µM, first compound 1 µM
[35] = second compound 10 µM, first compound 3.16 µM
[36] = second compound 10 µM, first compound 10 µM
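Note: spheroids exposed to drugs for 7 days before viability reading.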

CC(C)n1c(=O)n(C)c2cnc3cc(F)c(-c4ccc(OCCCN5CCCCC5)nc4)cc3c21 + CN(C)c1ccc(Nc2c3ccc(NC(=O)CCN4CCCC4)cc3nc3cc(NC(=O)CCN4CCCC4)ccc23)cc1
IC50 (second compound 0.0316 µM): > 10000 nM
IC50 (second compound 0.1 µM): > 10000 nM
IC50 (second compound 0.316 µM): > 10000 nM
IC50 (second compound 1 µM): > 10000 nM
IC50 (second compound 3.16 µM): > 10000 nM
IC50 (second compound 10 µM): 899 nM
viability, T/C [1]: 104%
viability, T/C [2]: 103%
viability, T/C [3]: 100%
viability, T/C [4]: 87.1%
viability, T/C [5]: 84.1%
viability, T/C [6]: 66.8%
viability, T/C [7]: 104%
viability, T/C [8]: 106%
viability, T/C [9]: 91.8%
viability, T/C [10]: 95.7%
viability, T/C [11]: 92.4%
viability, T/C [12]: 63.5%
viability, T/C [13]: 111%
viability, T/C [14]: 96.8%
viability, T/C [15]: 103%
viability, T/C [16]: 89.8%
viability, T/C [17]: 84.7%
viability, T/C [18]: 64.9%
viability, T/C [19]: 99.8%
viability, T/C [20]: 112%
viability, T/C [21]: 100%
viability, T/C [22]: 98.5%
viability, T/C [23]: 96.9%
viability, T/C [24]: 73.6%
viability, T/C [25]: 90.7%
viability, T/C [26]: 98%
viability, T/C [27]: 91.2%
viability, T/C [28]: 80.7%
viability, T/C [29]: 77%
viability, T/C [30]: 59.6%
viability, T/C [31]: 70%
viability, T/C [32]: 60.7%
viability, T/C [33]: 57.4%
viability, T/C [34]: 48.4%
viability, T/C [35]: 43.6%
viability, T/C [36]: 31.5%

CC1COCCN1c1cc(-c2ccnn2C)c2ccnc(-c3ccn[nH]3)c2n1 (centres undefined) + CN(C)c1ccc(Nc2c3ccc(NC(=O)CCN4CCCC4)cc3nc3cc(NC(=O)CCN4CCCC4)ccc23)cc1
IC50 (second compound 0.0316 µM): 206 nM
IC50 (second compound 0.1 µM): 301 nM
IC50 (second compound 0.316 µM): 366 nM
IC50 (second compound 1 µM): 449 nM
IC50 (second compound 3.16 µM): 348 nM
IC50 (second compound 10 µM): 161 nM
viability, T/C [1]: 69.3%
viability, T/C [2]: 53.7%
viability, T/C [3]: 44.4%
viability, T/C [4]: 41.3%
viability, T/C [5]: 29.4%
viability, T/C [6]: 22.8%
viability, T/C [7]: 81%
viability, T/C [8]: 59.2%
viability, T/C [9]: 49.5%
viability, T/C [10]: 39.2%
viability, T/C [11]: 30.9%
viability, T/C [12]: 21.3%
viability, T/C [13]: 65.6%
viability, T/C [14]: 63.4%
viability, T/C [15]: 49.9%
viability, T/C [16]: 39.3%
viability, T/C [17]: 30.4%
viability, T/C [18]: 21.9%
viability, T/C [19]: 66.2%
viability, T/C [20]: 63.6%
viability, T/C [21]: 50.2%
viability, T/C [22]: 45.4%
viability, T/C [23]: 30.6%
viability, T/C [24]: 25%
viability, T/C [25]: 69.4%
viability, T/C [26]: 59.4%
viability, T/C [27]: 49.8%
viability, T/C [28]: 43.6%
viability, T/C [29]: 31.1%
viability, T/C [30]: 22.9%
viability, T/C [31]: 55.6%
viability, T/C [32]: 54.8%
viability, T/C [33]: 44.4%
viability, T/C [34]: 35.5%
viability, T/C [35]: 26.6%
viability, T/C [36]: 21.9%
